{"source": "patent US20080242680A1", "about": "“AGENT FOR THE PROPHYLAXIS OR TREATMENT OF NEURODEGENERATIVE DISEASE” (RIKEN, priority 2007, published 2008)", "key": {"[1]": {"test_system": "tNhtt-150Q aggregates in Neuro2a cells", "assay": "Blocking of UPS / macroautophagy on benzamil's disaggregating effect", "type": "cell-based, mouse", "description": "(a) The UPS blocking remarkably abolished the effect of benzamil. In addition to the ponasterone A induction of tNhtt-150Q, Neuro2a cells were incubated with benzamil and proteasome inhibitor, i.e., lactacystin or MG-132, at two different concentrations. Lactacystin or MG-132 was also used as a control in the absence of benzamil. Lactacystin or MG-132 remarkably reversed and abolished the disaggregating effect of benzamil. […] MEF was incubated with 1 ng/ml doxycycline for 5 days, and polyQ of various lengths (+/−nls) was transiently transfected.\nFrom the evidence obtained hitherto, it was not possible to exclude the possibility that autophagy, in company with UPS or secondary to UPS, […] in the degradation of soluble or aggregated tNhtt-polyQ by benzamil. To investigate whether or not other degradation pathways play a major role in the degradation of tNhtt-polyQ by benzamil, first, the proteasome pathway was blocked by a specific proteasome inhibitor, i.e., lactacystin or MG-132, and the number of tNhtt-polyQ aggregates under these experiment conditions was quantified. […] To further exclude the possibility that macroautophagy plays an important role in the benzamil-mediated tNhtt-polyQ clearance, used was a stable mouse embryonic fibroblast (MEF) cell line in which expression of autophagy gene 5 (Atg5) can be readily manipulated by addition of tetracycline. […] 2623-9 (2006)]. Truncated Nhtt-polyQ was transfected into the MEF that had been treated with doxycycline for 5 days, and then benzamil was added for 18 hr."}, "[2]": {"test_system": "Neuro2a cells", "assay": "Cell death by proprium iodide (PI) staining", "type": "cell-based", "source_text": "; *** and ****p<0.0001. […] . […] . […] ."}, "[3]": {"test_system": "tNhtt-polyQ aggregates in native Neuro2a cells", "assay": "tNhtt-polyQ (+/-nls) aggregates in the transient expression system, ArrayScan quantification", "details": "transient 62 or 150 polyQ +/-nls, 50 μM added 5 hr after transfection, 12 hr", "experimental": "Cells were transiently transfected for 5 hr with the indicated plasmid expressing various length of polyQ (+/−nls), and then 50 μM of benzamil was added. 12 hr later, cells were collected for quantification by the ArrayScan. n=3, *p<0.0001.\nFor the transient expression of tNhtt-polyQ, in order to avoid interference to transfection efficiency, the test drug was introduced 5 hours after transfection.\n(§2) DNA was transiently transfected into the Neuro2a cells using Lipofectamine 2000 (Invitrogen) according to the instruction manual. Generally, for the transient expression of tNhtt-polyQ and ubi-dsRED (or RFP), DNA was transfected in amounts of 200 ng and 70 ng, respectively. […]\n(§3) To quantify the percentage of aggregate, the number of RFP or ubi-dsRED cells or the ubi-dsRED intensity, used was an automated fluorescence microscopic imaging system (ArrayScan® VTI HCS Reader) equipped with image analysis modules (BioApplications) that automatically convert images into numerical data for capturing changes in cell size, shape, intensity and other properties thereof in a culturing format. […] To quantify the percentage of aggregates in the cells, in the first protocol, the number of EGFP-positive spots in each field was counted, and in the second protocol, the number of Hoechst-positive nuclei was counted in the same field. […]"}, "[4]": {"test_system": "tNhtt-polyQ expression", "assay": "Semi-quantitative PCR of tNhtt-polyQ transgene expression", "type": "cell-based, mouse", "details": "up to 50 μM", "description": "Total RNA was extracted from the Neuro2a cells using an RNeasy® Mini Kit (QIAGEN) according to the instruction manual. To ensure complete removal of contaminating DNA, genomic DNA was digested with RNase-free DNase I (QIAGEN). The amount of total RNA was quantified based on the absorbance at 260 nm (GeneQuant, Amersham). Using SUPERSCRIPT™III RNase H^− Reverse Transcriptase (Invitrogen), 1 μg of RNA from each sample was transcribed into a cDNA. PCR was performed in a thermal cycler (BIO-RAD). For each primer, a cycle number that gives mid-log phase amplification was first determined, and the gene of interest was then amplified. The PCR product was separated by electrophoresis on 2.5% agarose gel. DNA images were captured by a UV transilluminator (TOYOBO CO., LTD.), and the band intensity was quantified by the ImageJ software (NCBI). Glyceraldehyde-3-phosphate-dehydrogenase (Gapdh) gene was amplified in each PCR experiment to serve as an internal loading control for a change in gene expression level. The PCR primers used in this research are as follows (synthesized by Sigma or Operon; all from 5′ to 3′; F-forward; R-reverse): NHE1-F […] (SEQ ID NO: 1), -R […] (SEQ ID NO: 2); NHE5-F […] (SEQ ID NO: 3), -R […] (SEQ ID NO: 4); NCX1-F […] (SEQ ID NO: 5), -R […] (SEQ ID NO: 6); NCX2-F […] (SEQ ID NO: 7), -R […] (SEQ ID NO: 8); NCX3-F […] (SEQ ID NO: 9), -R […] (SEQ ID NO: 10); BNaC1-F […] […]"}, "[5]": {"test_system": "SDS-resistant tNhtt-polyQ aggregates", "assay": "Filter trap assay of SDS-resistant aggregates in cell lysates", "type": "cell-based, mouse", "details": "Neuro2a lysates, 2% SDS", "description": "A filter trap assay was performed with a Hybri-Dot manifold (BIO-RAD) and a cellulose acetate membrane filter having a pore size of […] (Advantec). Concisely stated, cells ready for analysis were lysed in the same lysis buffer as that used for the Western blot and sonicated briefly, and the protein concentration were quantified according to the above-mentioned BCA method. For a brain sample, brain tissues were initially homogenized 10 strokes at 1500 rpm in a 5 cm^3 glass tube with 1 ml homogenization buffer (50 mM Tris-HCl, pH 7.4, 150 mM NaCl, 1% Triton X-100, 1 mM PMSF, and a complete protease inhibitor cocktail). Then, brain lysate was sonicated briefly, and the concentration was measured. The same amount of proteins from respective experiment conditions were each diluted by 2% SDS in PBS to 100 μl, and applied onto the membrane. The wells were washed twice with 2% SDS/PBS and vacuum-suctioned for 20 min, thereby aggregate insoluble in SDS being completely and securely trapped. The membranes were then blocked with 5% skim milk and Western blotting was proceeded."}, "[6]": {"test_system": "tNhtt-polyQ-EGFP aggregates in Neuro2a cells", "assay": "tNhtt-polyQ-EGFP aggregates in ponasterone A-inducible Neuro2a cells, ArrayScan quantification", "type": "cell-based, mouse", "description": "; polyQ, 60 or 150 polyglutamine repeats) is induced by 1 μM ponasterone A and which that can differentiate into neuronal phenotype cells in response to treatment with 5 mM N6,2′-O-dibutyryladenosine-3′,5′-cyclic monophosphate sodium salt (dbcAMP) [Wang, G. H. et al. Neuroreport 10, 2435-8 (1999)]. […] To eliminate the possibility of Ami and Ben decreasing aggregates by interfering with the ponasterone A-inducible system, native Neuro2a cells were transfected with an expression plasmid having 62 or 150 polyglutamine repeats in the presence or absence of a nuclear localization signal peptide (FIG. 2d)."}, "[7]": {"test_system": "R6/2 mice", "assay": "Filter trap assay of whole brain lysates of R6/2 mice, anti-huntingtin (em48)", "type": "in vivo, mouse", "details": "whole brain lysate, 8-week-old and 12-week-old, 1 or 5 mg/kg oral", "description": "(§1) HD mouse model R6/2 containing 145 CAG repeats was originally purchased from The Jackson Laboratory. Mice carrying 120-130 CAG repeats (confirmed by PCR) were selected for an in vivo test with benzamil. Benzamil dissolved in water was orally administered in an amount of 5 mg/kg (Ben-5) or 1 mg/kg (Ben-1) once a day six times a week (no administration one day a week) starting from 4 week-old until death. The body weight was measured once a week. […] For the survival distribution, the number of days each mouse survived was recorded, and data collected for all treatments (mice survived for 13 weeks or longer; water, n=8; tg-Ben1, n=10; and tg-Ben5, n=9) were subjected to the Kaplan-Meier analysis followed by log-rank testing. […]\nA filter trap assay was performed with a Hybri-Dot manifold (BIO-RAD) and a cellulose acetate membrane filter having a pore size of […] (Advantec). Concisely stated, cells ready for analysis were lysed in the same lysis buffer as that used for the Western blot and sonicated briefly, and the protein concentration were quantified according to the above-mentioned BCA method. […] Then, brain lysate was sonicated briefly, and the concentration was measured. […]"}, "[8]": {"assay": "Detection in cerebrospinal fluid (CSF)", "type": "in vivo", "details": "experimental rats"}, "[9]": {"test_system": "soluble tNhtt-60Q in Neuro2a cells", "assay": "Chase experiment, degradation of soluble tNhtt-polyQ", "type": "cell-based, mouse", "details": "50 μM, Day 0 to Day 4", "description": "To determine whether soluble tNhtt-polyQ is degraded faster in the presence of benzamil, a chase experiment was performed, because inducible Neuro2a cells that express tNhtt-60Q were selected. Majority of the tNhtt-60Q remained soluble, and only few aggregates were observed one day after incubation. Concisely stated, Neuro2a cells were first differentiated, and induced to express hrtNhtt-60Q for 24 hours. Ponasterone A was removed thereafter (with dbcAMP maintaining the differentiation status), and the cells were incubated with water (control) or 50 μM benzamil (Day 0) for 4 days (Day 4). The medium was replaced with a fresh medium containing benzamil in the same concentration every 2 days, and cells were collected once a day until Day 4. Cells were then lysed, and expression of soluble tNhtt-60Q was analyzed by Western blot with an anti-huntingtin antibody (anti-em48)."}, "[10]": {"test_system": "R6/2 mice", "assay": "Survival of R6/2 mice (Kaplan-Meier, log-rank)", "type": "in vivo, mouse", "details": "tg-Ben1, 1 mg/kg oral, average ±S.E.M.", "description": "as §1, with “week. For a clasping test, mice were suspended by the tail for 30 sec, clasping patterns were graded into the following levels according to the following criteria: 0: no clasping, 1: forelimb clasping only, 2: both forelimb and hindlimb clasping once or twice, 3: 3 times or more clasping for more than 5 sec of both forelimb and hindlimb.” for “week.”\nFor comparing two samples, an unpaired student's t-test was used. […] For survival rate, a survival distribution curve was plotted with the Kaplan-Meier method, and the survival rate was then calculated with the log-rank testing (all the data were generated with the XLSTAT software). […]"}, "[11]": {"test_system": "ubiquitin proteasome system (UPS) in Neuro2a cells", "assay": "ubi-dsRED reporter of proteasome activity under MG-132 block", "details": "increasing MG-132 concentration", "experimental": "DNA was transiently transfected into the Neuro2a cells using Lipofectamine 2000 (Invitrogen) according to the instruction manual. Generally, for the transient expression of tNhtt-polyQ and ubi-dsRED (or RFP), DNA was transfected in amounts of 200 ng and 70 ng, respectively. Cells were transfected for 5 hr, and the media were replaced for the subsequent treatment.\nTo quantify the percentage of aggregate, the number of RFP or ubi-dsRED cells or the ubi-dsRED intensity, used was an automated fluorescence microscopic imaging system (ArrayScan® VTI HCS Reader) equipped with image analysis modules (BioApplications) that automatically convert images into numerical data for capturing changes in cell size, shape, intensity and other properties thereof in a culturing format. […] To quantify the percentage of aggregates in the cells, in the first protocol, the number of EGFP-positive spots in each field was counted, and in the second protocol, the number of Hoechst-positive nuclei was counted in the same field. On the other hand, the quantification of RFP/ubi-dsRED cells could be achieved by a one scanning protocol. […] Generally, 30,000-50,000 cells were scanned in each well (about 200 scanning fields), and quantification data of at least 200,000 cells in each experiment setting were generated by ArrayScan®."}, "[12]": {"test_system": "proteasome activity in polyQ-bearing Neuro2a cells", "assay": "ubi-dsRED reporter in tNhtt-polyQ-bearing cells", "type": "cell-based, mouse", "details": "Western blotting with anti-RFP antibody; lactacystin 10 μM", "experimental": "Neuro2a cells were co-transfected with ubi-dsRED and EGFP expressing (EGFP only, tNhtt-17Q-EGFP or tNhtt-150Q-EGFP) constructs, and 18 hr later, the intensity of ubi-dsRED fluorescence was analyzed by the ArrayScan. […] Each population contained more than 10,000 cells, and distribution between different populations was highly significant. All p<0.0001. […] Lactacystin served as a positive control for UPS blocking.\nas §2, §3"}, "[13]": {"details": "proteasome inhibitor with benzamil, two concentrations"}}, "note": "Where a SMILES comes first, the peptide text is derived from it. The star is where a group is joined. Cbz = O=C(OCc1ccccc1)*", "data": [{"compound": "Cn1cnc(N)c2ncnc1-2", "note": "[3-methyladenine]", "values": [{"measurement": "effect on the disaggregating effect of benzamil", "setting": "[1]; 5 mM 3-MA together with 5 μM lactacystin", "value": "completely abolished"}]}, {"compound": "N=C(N)NC(=O)c1nc(Cl)c(N)nc1N", "note": "[amiloride]", "values": [{"measurement": "concentration without significant toxicity", "setting": "[2]; mouse", "value": "up to 50 μM"}, {"measurement": "decrease of cytoplasmic and nuclear aggregates", "setting": "[3]", "value": 40, "unit": "%"}, {"measurement": "expression level of tNhtt-16/60/150Q", "setting": "[4]", "value": "did not influence the expression level of tNhtt-16/60/150Q"}, {"measurement": "aggregate trapped on cellulose acetate membrane", "setting": "[5]", "value": "reduced the amount of aggregate trapped on a cellulose acetate membrane"}, {"measurement": "tNhtt-150Qnls-EGFP nuclear aggregates", "setting": "[6]", "value": "significantly decreased tNhtt-150Qnls-EGFP nuclear aggregates"}, {"measurement": "tNhtt-60Q-EGFP and tNhtt-150Q-EGFP cytoplasmic aggregates", "setting": "[6]; induced 1 day, up to 50 μM, dose-dependent", "value": "decreased tNhtt-60Q-EGFP and tNhtt-150Q-EGFP cytoplasmic aggregates"}]}, {"compound": "NC(=NCc1ccccc1)NC(=O)c1nc(Cl)c(N)nc1N", "note": "[benzamil]", "values": [{"measurement": "concentration without significant toxicity", "setting": "[2]; Neuro2a cells, PI staining", "value": "up to 50 μM"}, {"measurement": "decrease of aggregates detected by anti-huntingtin (em48) antibody", "setting": "[7]", "value": "more than 30%"}, {"measurement": "presence in cerebrospinal fluid (CSF)", "setting": "[8]", "value": "could be detected and quantified in the cerebrospinal fluid (CSF)"}, {"measurement": "decrease of cytoplasmic and nuclear aggregates", "setting": "[3]", "value": 40, "unit": "%"}, {"measurement": "half-life of soluble tNhtt-60Q", "setting": "[9]", "value": "92.3 ± 7.68", "unit": "h"}, {"measurement": "average survival period", "setting": "[10]", "value": "126.1 ± 4.001", "unit": "days"}]}, {"compound": "CC(C)C[C@@H](C=O)NC(=O)[C@H](CC(C)C)NC(=O)[C@H](CC(C)C)NC(=O)OCc1ccccc1", "note": "[MG-132, Z-Leu-Leu-Leu-aldehyde] (Cbz-Leu-Leu-Leu-aldehyde)", "values": [{"measurement": "ubi-dsRED cell accumulation", "setting": "[11]", "value": "led to ubi-dsRED cell accumulation"}, {"measurement": "effect on the disaggregating effect of benzamil", "setting": "[1]; [13]", "value": "attenuated the disaggregating effect exerted by benzamil"}]}, {"compound": "CC(=O)N[C@@H](CSC(=O)[C@]1([C@@H](O)C(C)C)NC(=O)[C@H](C)[C@@H]1O)C(=O)O", "note": "[lactacystin]", "values": [{"measurement": "accumulation of ubi-dsRED cells", "setting": "[12]", "value": "greatly increased accumulation of ubi-dsRED cells"}, {"measurement": "effect on the disaggregating effect of benzamil", "setting": "[1]; [13]", "value": "attenuated the disaggregating effect exerted by benzamil"}]}]}
